From US8946216B2, “Indazole derivatives useful as ERK inhibitors” (Merck Sharp & Dohme Corp., priority 2010, dated 2015)

Tests used:
ERK protein = ERK protein (Homo sapiens, UniProt P28482); experiment: TdF (Temperature Dependence Fluorescence, thermal shift) assay for ERK; format: binding; conditions: read-out: TdF Kd; 3 μM ERK protein, 15, 50 or 100 μM compound, Sypro Orange; Kd calculated from ΔTm; uncertainty estimated ±50%
Description: Assays: TdF Assay for ERK
The SAR (Structure Activity Relationship) for ERK ligands covered by this invention was interrogated using the TdF (Temperature Dependence Fluorescence) assay or best known as thermal shift assay. The TdF assay was mainly conducted in the 96-well based CHROMO-4 real time fluorescence plate reader (BioRad). The Sypro Orange (Sigma-Aldrich), environmentally sensitive fluorescence dye, was used to monitor the protein folding-unfolding transition. Protein-ligand binding was gauged by the change (or shift) in the unfolding transition temperature (ΔTm) acquired at protein alone with respect to protein in the presence of ligand of interest.
Compound of interest was first prepared in DMSO stock (typical concentration: 10 mM). Sample of 20 μL was then added into the 96-well PCR plate, where it consisted of 3 μM. […] Final percentage of DMSO resided in the sample was 2%. The sample plate was heated from 30° C. to 90° C. with thermal ramping rate of 1 ° C./min. The fluorescence signals were acquired with excitation and emission wavelengths centered at 490 and 560 nm respectively. The instrument thermal stability was ±0.2° C. The melting temperatures (Tm) for ERK protein under aforementioned conditions occurred at 61.0±0.2° C. and 64.8±0.2° C. respectively.
Theoretical Basis for TdF-based Ligand Binding Affinity Constant
The derivation of TdF-based ligand binding affinity constant (Kd) followed closely those previously formulated by Brandts and Lin [2]. In brief, the binding constant of the ligand at the Tm is expressed as below: […]
where T0 is the midpoint of unfolding for unliganded protein and Tm is the midpoint of unfolding in presence of ligand. [LTm] is free ligand at Tm. The ΔHu and ΔCpu are the enthalpy of unfolding and heat capacity change of unfolding for the protein respectively. Following algorithm derived by Winsor and coworker, the T0, ΔHu and ΔCpu can be determined separately from nonlinear regression fitting the protein alone melting curve:
Where F(T) is the observed fluorescence intensity at any temperature T, Yn and Yu are the predicted fluorescence intensities for fully folded and unfolded protein, respectively; mn and mu are slope correction for changes in Yn and Yu with respect to changes in temperature (analogously replace T0 with Tm in the above equation for liganded protein to yield Tm).
where ΔHL(T) is the van't Hoff enthalpy of ligand binding at temperature T and ΔCpL is the heat capacity upon ligand binding. For simplicity, the ΔCpL and ΔHL(T) were set to zero and −7 kcal/mol respectively. The uncertainty in the calculated ligand binding affinity constant was estimated to be ±50%.

[1] = molecular target: unphosphorylated Mouse ERK2 protein (inactive ERK2) (Mus musculus, UniProt P63085); experiment: Coupled ERK2 (cERK) assay, coupled MEK1/ERK2 IMAP; format: biochemical; conditions: 30 min preincubation with inactive ERK2, then activation by human MEK1; 30 μM ATP; fluorescence polarization; read-out: cERK2 IC50
Sequence of unphosphorylated Mouse ERK2 protein (inactive ERK2) (P63085 whole entry): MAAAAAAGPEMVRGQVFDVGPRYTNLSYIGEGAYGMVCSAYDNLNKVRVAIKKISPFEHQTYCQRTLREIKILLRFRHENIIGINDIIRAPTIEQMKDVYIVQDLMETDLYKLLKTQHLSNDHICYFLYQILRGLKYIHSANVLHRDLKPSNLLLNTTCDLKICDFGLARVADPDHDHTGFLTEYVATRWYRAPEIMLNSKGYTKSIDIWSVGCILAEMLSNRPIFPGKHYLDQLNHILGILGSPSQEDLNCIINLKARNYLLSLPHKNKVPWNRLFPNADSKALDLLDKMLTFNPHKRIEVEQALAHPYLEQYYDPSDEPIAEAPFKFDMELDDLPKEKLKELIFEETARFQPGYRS
Description: • 1. M. W. Pantoliana, E. C. Petrella, J. D. Kwasnoski, V. S. Lobanov, J. Myslik, E. Graf, T. Carver, E. Asel, B. A. Springer, P. Lane, F. R. Salemme, High-density miniaturized thermal shift assays as a general strategy for drug discovery, J. Biomol. Screen 6 (2001) 429-440 • 2. J. F. Brandts, L.-N. Lin, Study of strong to ultratight protein interactions using differential scanning calorimetry, Biochemistry 29 (1990) 6927-6940 • 3. Mayhood, T. W., Windsor, W. T., Ligand binding affinity determined by temperature-dependent circular dichroism: Cyclin-dependent kinase 2 inhibitors, Analytical Biochemistry 345 (2005) 187-197 Coupled ERK2 (cERK) Assay:
14 μl of kinase buffer (10 mM Tris.HCl pH 7.2, 10 mM MgCl2, 0.01% Tween-20, 1 mM DTT) containing 0.4 ng unphosphorylated Mouse ERK2 protein was added to each well of a black 384-well assay plate. […] DMSO concentration during initial incubation is 6.7%. ERK2 activity was determined to be insensitive to DMSO concentrations up to 20%. ERK2 was then activated and it's kinase activity measured by the addition of 10 μl kinase buffer with the following components (final concentration per reaction): 2 ng active (phosphorylated) human MEK1 protein and 4 μM (total) ERK2 IMAP substrate peptides (3.9 μM unlabeled IPTTPITTTYFFFK-CONH2 and 100 nM IPTTPITTTYFFFK(5-carboxyfluorescein)-CONH2) and 30 μM ATP. DMSO concentration during ERK activation was 4%. After one hour, reactions were terminated by addition of 60 μl IMAP detections beads in binding buffer (Molecular Devices). Binding was allowed to equilibrate for 30 minutes before reading the plate on an LJL Analyst Fluorescence Polarization plate reader. […] Active compounds were reconfirmed in an independent assay.

Sequence of ERK protein (P28482 2-360): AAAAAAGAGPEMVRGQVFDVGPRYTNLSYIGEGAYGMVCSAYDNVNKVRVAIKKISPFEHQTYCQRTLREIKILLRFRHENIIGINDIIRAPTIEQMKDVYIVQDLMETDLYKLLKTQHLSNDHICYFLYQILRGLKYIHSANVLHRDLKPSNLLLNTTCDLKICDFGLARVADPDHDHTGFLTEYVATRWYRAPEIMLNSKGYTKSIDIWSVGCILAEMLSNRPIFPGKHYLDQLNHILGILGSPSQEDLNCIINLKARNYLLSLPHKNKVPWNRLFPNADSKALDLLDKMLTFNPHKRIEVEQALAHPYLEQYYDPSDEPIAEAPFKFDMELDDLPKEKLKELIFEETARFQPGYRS

Row | SMILES | Kd (ERK protein) [µM] | IC50 [1] [µM]
1 | O=C(Nc1ccc2[nH]nc(-c3ccncc3)c2c1)C1CN(Cc2ccsc2)CCS1 (centres unmarked) [Compound 14, N-[3-(4-PYRIDINYL)-1H-INDAZOL-5-YL]-4-(3-THIENYLMETHYL)-2-THIOMORPHOLINECARBOXAMIDE] | 0.034 | 0.183
2 | O=C(NCc1ccccc1)c1n[nH]c2ccc(NC(=O)C3CN(Cc4ccccc4F)CCS3)cc12 (centres unmarked) [Compound 77, 5-[[[4-[(2-FLUOROPHENYL)METHYL]-2-THIOMORPHOLINYL]CARBONYL]AMINO]-N-(PHENYLMETHYL)-1H-INDAZOLE-3-CARBOXAMIDE] | 1.8 | 3.1
3 | N#Cc1ccc(CN2CCOC(C(=O)Nc3ccc4[nH]nc(-c5ccncc5)c4c3)C2)cc1 (centres unmarked) [Compound 30, 4-[(4-CYANOPHENYL)METHYL]-N-[3-(4-PYRIDINYL)-1H-INDAZOL-5-YL]-2-MORPHOLINECARBOXAMIDE] | 3.29 | 1.28
4 | O=C(Nc1ccc2[nH]nc(-c3ccncc3)c2c1)C1CCCN(Cc2ccccc2Cl)C1 (centres unmarked) [Compound 23, 1-[(2-CHLOROPHENYL)METHYL]-N-[3-(4-PYRIDINYL)-1H-INDAZOL-5-YL]-3-PIPERIDINECARBOXAMIDE] | 0.003 | 0.158
5 | CCCCNC(=O)c1n[nH]c2ccc(NC(=O)C3CN(Cc4ccccc4F)CCS3)cc12 (centres unmarked) [Compound 76, N-BUTYL-5-[[[4-[(2-FLUOROPHENYL)METHYL]-2-THIOMORPHOLINYL]CARBONYL]AMINO]-1H-INDAZOLE-3-CARBOXAMIDE] | 0.92 | 0.873
6 | O=C(Nc1ccc2[nH]nc(-c3ccncc3)c2c1)C1CN(Cc2ccccc2Br)CCS1 (centres unmarked) [Compound 6, 4-[(2-BROMOPHENYL)METHYL]-N-[3-(4-PYRIDINYL)-1H-INDAZOL-5-YL]-2-THIOMORPHOLINECARBOXAMIDE] | 0.038 | 0.114
7 | O=C(Nc1ccc2[nH]nc(-c3ccncc3)c2c1)C1CCCN(Cc2ccccc2)C1 (centres unmarked) [Compound 24, 1-(PHENYLMETHYL)-N-[3-(4-PYRIDINYL)-1H-INDAZOL-5-YL]-3-PIPERIDINECARBOXAMIDE] | 0.02 | 0.239
8 | CN1CCCC(C(=O)Nc2ccc3[nH]nc(-c4ccncc4)c3c2)C1 (centres unmarked) [Compound 26, 1-METHYL-N-[3-(4-PYRIDINYL)-1H-INDAZOL-5-YL]-3-PIPERIDINECARBOXAMIDE] | 1.1 | 4.87
9 | O=C(Nc1ccc2[nH]nc(-c3ccncc3)c2c1)C1CN(Cc2ccccc2)CCC1O (centres unmarked) [Compound 71, 4-HYDROXY-1-(PHENYLMETHYL)-N-[3-(4-PYRIDINYL)-1H-INDAZOL-5-YL]-3-PIPERIDINECARBOXAMIDE] | 0.0841 | –
10 | O=C(Nc1ccc2[nH]nc(-c3ccncc3)c2c1)C1CN(Cc2ccsc2)CCO1 (centres unmarked) [Compound 3, N-[3-(4-PYRIDINYL)-1H-INDAZOL-5-YL]-4-(3-THIENYLMETHYL)-2-MORPHOLINECARBOXAMIDE] | 0.077 | 0.0876
11 | O=C(Nc1ccc2[nH]nc(-c3ccncc3)c2c1)C1CNCCN1c1ccccc1 (centres unmarked) [Compound 54, 1-PHENYL-N-[3-(4-PYRIDINYL)-1H-INDAZOL-5-YL]-2-PIPERAZINECARBOXAMIDE] | 0.03 | 0.168
12 | O=C(Nc1ccc2[nH]nc(-c3ccncc3)c2c1)C1CCCN(Cc2ccccc2Br)C1 (centres unmarked) [Compound 21, 1-[(2-BROMOPHENYL)METHYL]-N-[3-(4-PYRIDINYL)-1H-INDAZOL-5-YL]-3-PIPERIDINECARBOXAMIDE] | 0.004 | 0.13

Other lines, results leading:

Row | Kd (ERK protein) [µM] | IC50 [1] [µM] | SMILES
13 | 0.017 | 0.0778 | O=C(Nc1ccc2[nH]nc(-c3ccncc3)c2c1)C1CN(Cc2ccccc2Cl)CCO1 (centres unmarked) [Compound 15, 4-[(2-CHLOROPHENYL)METHYL]-N-[3-(4-PYRIDINYL)-1H-INDAZOL-5-YL]-2-MORPHOLINECARBOXAMIDE]
14 | 0.715 | 4.76 | O=C(Nc1ccc2[nH]nc(-c3ccncc3)c2c1)C1CN(Cc2c(F)cccc2C(F)(F)F)CCO1 (centres unmarked) [Compound 39, 4-[[2-FLUORO-6-(TRIFLUOROMETHYL)PHENYL]METHYL]-N-[3-(4-PYRIDINYL)-1H-INDAZOL-5-YL]-2-MORPHOLINECARBOXAMIDE]
15 | 0.727 | 0.4 | O=C(Nc1ccc2[nH]nc(-c3ccncc3)c2c1)C1CN(Cc2cc(F)ccc2F)CCO1 (centres unmarked) [Compound 51, 4-[(2,5-DIFLUOROPHENYL)METHYL]-N-[3-(4-PYRIDINYL)-1H-INDAZOL-5-YL]-2-MORPHOLINECARBOXAMIDE]
16 | 1.19 | 1.11 | COc1cc(F)c(CN2CCOC(C(=O)Nc3ccc4[nH]nc(-c5ccncc5)c4c3)C2)cc1OC (centres unmarked) [Compound 40, 4-[(2-FLUORO-4,5-DIMETHOXYPHENYL)METHYL]-N-[3-(4-PYRIDINYL)-1H-INDAZOL-5-YL]-2-MORPHOLINECARBOXAMIDE]
17 | 1.26 | 2.66 | O=C(Nc1ccc2[nH]nc(-c3ccncc3)c2c1)C1CN(Cc2cc(C(F)(F)F)ccc2F)CCO1 (centres unmarked) [Compound 42, 4-[[2-FLUORO-5-(TRIFLUOROMETHYL)PHENYL]METHYL]-N-[3-(4-PYRIDINYL)-1H-INDAZOL-5-YL]-2-MORPHOLINECARBOXAMIDE]
18 | 0.775 | 0.383 | N#Cc1ccccc1CN1CCOC(C(=O)Nc2ccc3[nH]nc(-c4ccncc4)c3c2)C1 (centres unmarked) [Compound 32, 4-[(2-CYANOPHENYL)METHYL]-N-[3-(4-PYRIDINYL)-1H-INDAZOL-5-YL]-2-MORPHOLINECARBOXAMIDE]
19 | 0.017 | 0.0969 | O=C(Nc1ccc2[nH]nc(-c3ccncc3)c2c1)C1CN(Cc2ccccc2Br)CCO1 (centres unmarked) [Compound 7, 4-[(2-BROMOPHENYL)METHYL]-N-[3-(4-PYRIDINYL)-1H-INDAZOL-5-YL]-2-MORPHOLINECARBOXAMIDE]
20 | 0.584 | 0.419 | O=C(Nc1ccc2[nH]nc(-c3ccncc3)c2c1)C1CN(Cc2ccc(Cl)cc2F)CCO1 (centres unmarked) [Compound 41, 4-[(4-CHLORO-2-FLUOROPHENYL)METHYL]-N-[3-(4-PYRIDINYL)-1H-INDAZOL-5-YL]-2-MORPHOLINECARBOXAMIDE]
21 | 2.72 | 1.18 | N#Cc1cccc(CN2CCOC(C(=O)Nc3ccc4[nH]nc(-c5ccncc5)c4c3)C2)c1 (centres unmarked) [Compound 31, 4-[(3-CYANOPHENYL)METHYL]-N-[3-(4-PYRIDINYL)-1H-INDAZOL-5-YL]-2-MORPHOLINECARBOXAMIDE]
22 | 0.01 | 0.0511 | O=C(Nc1ccc2[nH]nc(-c3ccncc3)c2c1)C1CN(Cc2ccccc2)CCO1 (centres unmarked) [Compound 20, 4-(PHENYLMETHYL)-N-[3-(4-PYRIDINYL)-1H-INDAZOL-5-YL]-2-MORPHOLINECARBOXAMIDE]
23 | 0.91 | 1.78 | O=C(Nc1ccc2[nH]nc(-c3ccncc3)c2c1)C1CN(Cc2ccc(F)c(Cl)c2)CCO1 (centres unmarked) [Compound 49, 4-[(3-CHLORO-4-FLUOROPHENYL)METHYL]-N-[3-(4-PYRIDINYL)-1H-INDAZOL-5-YL]-2-MORPHOLINECARBOXAMIDE]
24 | 0.588 | 0.556 | COc1ccc(CN2CCOC(C(=O)Nc3ccc4[nH]nc(-c5ccncc5)c4c3)C2)c(F)c1 (centres unmarked) [Compound 38, 4-[(2-FLUORO-4-METHOXYPHENYL)METHYL]-N-[3-(4-PYRIDINYL)-1H-INDAZOL-5-YL]-2-MORPHOLINECARBOXAMIDE]
